According to US20110086834A1, “ALKYNYL ALCOHOLS AS KINASE INHIBITORS” (AMGEN INC., priority 2008, published 2011):

Molecular target: T1, NIK (Homo sapiens, UniProt Q99558)
T1 construct: Both assays utilize a truncated form of NIK containing only the catalytic domain; made in house; host or cells: baculovirus expression system (insect cells implied)
Assay: homogenous time resolved fluorescence (HTRF) assay for NIK Ki measurement
Format: biochemical
Details: truncated NIK (catalytic domain only), autophosphorylation; 10 nM enzyme; 20, 100, 200 or 500 μM ATP; room temperature, 2 hours; read-out: Ki activity in the homogenous time resolved fluorescence (HTRF) assay for NIK
Procedure: Two formats of biochemical assays are implemented: (1) chemiluminescent (CL) assay for NIK IC50 determination; (2) homogenous time resolved fluorescence (HTRF) assay for NIK Ki measurement. […] The NIK proteins are purified with baculovirus expression system and further biotinylated with N-hydroxysuccinamide biotin ester (Sigma). […] The reaction mixtures are then immobilized on a Streptavidin-coated plate (Pierce). […] For the HTRF assay, 10 nM of enzyme are incubated with compounds in the presence of 20, 100, 200, or 500 μM of ATP in a buffer with 20 mM of Hepes pH7.5, 20 mM of MgCl2, 0.2% of Tween 20 and 1 mM of DTT at room temperature for 2 hours.

T1 sequence (Q99558 400-655 limits assumed): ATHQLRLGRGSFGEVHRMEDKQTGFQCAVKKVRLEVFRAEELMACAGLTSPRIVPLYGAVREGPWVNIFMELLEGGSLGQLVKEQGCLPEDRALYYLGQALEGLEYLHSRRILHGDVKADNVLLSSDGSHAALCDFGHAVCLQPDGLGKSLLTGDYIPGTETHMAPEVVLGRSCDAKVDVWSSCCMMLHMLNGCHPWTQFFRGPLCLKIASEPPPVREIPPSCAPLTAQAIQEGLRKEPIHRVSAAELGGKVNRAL

Structure (SMILES) | Ki [µM]
CC(O)(C#Cc1ccc2c(c1)N(c1nc(N)ncc1Cl)CC2)c1nc(CO)cs1 (stereo not drawn) [Example 35, 4-(1-(2-amino-5-chloropyrimidin-4-yl)indolin-6-yl)-2-(4-(hydroxymethyl)thiazol-2-yl)but-3-yn-2-ol] | 1 to 30
CC(O)(C#Cc1ccc2c(c1)N(c1nc(N)ncc1Cl)CC2(CO)CO)c1nccs1 (stereo not drawn) [Example 60, 4-(1-(2-amino-5-chloro-4-pyrimidinyl)-3,3-bis(hydroxymethyl)-2,3-dihydro-1H-indol-6-yl)-2-(1,3-thiazol-2-yl)-3-butyn-2-ol] | < 1
Nc1ncc(Cl)c(N2CC(CO)(CO)c3ccc(C#CC4(O)CCCC4)cc32)n1 [Example 62, 1-((1-(2-amino-5-chloro-4-pyrimidinyl)-3,3-bis(hydroxymethyl)-2,3-dihydro-1H-indol-6-yl)ethynyl)cyclopentanol] | < 1
CC1(CCCO)CN(c2nc(N)ncc2Cl)c2cc(C#CC3(O)CCCC3)ccc21 (stereo not drawn) [Example 63, 1-((1-(2-amino-5-chloro-4-pyrimidinyl)-3-(3-hydroxypropyl)-3-methyl-2,3-dihydro-1H-indol-6-yl)ethynyl)cyclopentanol] | < 1
COCCC1(C)CN(c2nc(N)ncc2Cl)c2cc(C#CC3(O)CCCC3)ccc21 (stereo not drawn) [Example 64, 1-((1-(2-amino-5-chloro-4-pyrimidinyl)-3-(2-methoxyethyl)-3-methyl-2,3-dihydro-1H-indol-6-yl)ethynyl)cyclopentanol] | < 1
CC1(C)CN(c2nc(N)ncc2F)c2cc(C#CC3(O)CCCC3)ccc21 [Example 65, 1-((1-(2-amino-5-fluoro-4-pyrimidinyl)-3,3-dimethyl-2,3-dihydro-1H-indol-6-yl)ethynyl)cyclopentanol] | < 1
CC1(CO)CN(c2nc(N)ncc2F)c2cc(C#CC3(O)CCCC3)ccc21 (stereo not drawn) [Example 66, 1-((1-(2-amino-5-fluoro-4-pyrimidinyl)-3-(hydroxymethyl)-3-methyl-2,3-dihydro-1H-indol-6-yl)ethynyl)cyclopentanol] | < 1
CC1(CCC#N)CN(c2nc(N)ncc2F)c2cc(C#CC3(O)CCCC3)ccc21 (stereo not drawn) [Example 67, 3-(1-(2-amino-5-fluoro-4-pyrimidinyl)-6-((1-hydroxycyclopentyl)ethynyl)-3-methyl-2,3-dihydro-1H-indol-3-yl)propanenitrile] | < 1
Nc1ncc(F)c(N2CCc3ccc(C#CC4(O)CCCC4)cc32)n1 [Example 68, 1-((1-(2-amino-5-fluoro-4-pyrimidinyl)-2,3-dihydro-1H-indol-6-yl)ethynyl)cyclopentanol] | < 1
COCC1(C)CN(c2nc(N)nc3[nH]cnc23)c2cc(C#CC3(O)CCCC3)ccc21 (stereo not drawn) [Example 69, 1-((1-(2-amino-9H-purin-6-yl)-3-(methoxymethyl)-3-methyl-2,3-dihydro-1H-indol-6-yl)ethynyl)cyclopentanol] | < 1
Nc1nc(N2CCc3ccc(C#CC4(O)CCCC4)cc32)c2nc[nH]c2n1 [Example 72, 1-((1-(2-amino-9H-purin-6-yl)-2,3-dihydro-1H-indol-6-yl)ethynyl)cyclopentanol] | < 1
COCCOCC1(C)CN(c2nc(N)nc3[nH]cnc23)c2cc(C#CC3(O)CCCC3)ccc21 (stereo not drawn) [Example 73, 1-((1-(2-amino-9H-purin-6-yl)-3-((2-methoxyethoxy)methyl)-3-methyl-2,3-dihydro-1H-indol-6-yl)ethynyl)cyclopentanol] | < 1
CC1(CO)CN(c2nc(N)nc3[nH]cnc23)c2cc(C#CC3(O)CCCC3)ccc21 (stereo not drawn) [Example 74, 1-((1-(2-amino-9H-purin-6-yl)-3-(hydroxymethyl)-3-methyl-2,3-dihydro-1H-indol-6-yl)ethynyl)cyclopentanol] | < 1
CC1(C)CN(c2nc(N)nc3[nH]cnc23)c2cc(C#CC3(O)CCCC3)ccc21 [Example 75, 1-((1-(2-amino-9H-purin-6-yl)-3,3-dimethyl-2,3-dihydro-1H-indol-6-yl)ethynyl)cyclopentanol] | < 1
Cc1ccc(S(=O)(=O)n2nccc2C(C)(O)C#Cc2ccc3c(c2)N(c2ccnc(N)n2)CC3)cc1 (stereo not drawn) [Example 76, 4-(1-(2-Amino-4-pyrimidinyl)-2,3-dihydro-1H-indol-6-yl)-2-(1-((4-methylphenyl)sulfonyl)-1H-pyrazol-5-yl)-3-butyn-2-ol] | < 1

Results, then the molecule that gave them:

Ki [µM] | Structure (SMILES)
< 1 | Cc1cc(C(C)(O)C#Cc2ccc3c(c2)N(c2ccnc(N)n2)CC3)no1 (stereo not drawn) [Example 20, 4-(1-(2-aminopyrimidin-4-yl)indolin-6-yl)-2-(5-methylisoxazol-3-yl)but-3-yn-2-ol]
< 1 | CC(O)(C#Cc1ccc2c(c1)N(c1ccnc(N)n1)CC2)C1CCC1 (stereo not drawn) [Example 21, 4-(1-(2-aminopyrimidin-4-yl)indolin-6-yl)-2-cyclobutylbut-3-yn-2-ol]
< 1 | CCc1csc(C(C)(O)C#Cc2ccc3c(c2)N(c2nc(N)ncc2Cl)CC3)c1 (stereo not drawn) [Example 22, 4-(1-(2-amino-5-chloropyrimidin-4-yl)indolin-6-yl)-2-(4-ethylthiophen-2-yl)but-3-yn-2-ol]
< 1 | Cn1ccc(C(C)(O)C#Cc2ccc3c(c2)N(c2nc(N)ncc2Cl)CC3)n1 (stereo not drawn) [Example 26, 4-(1-(2-amino-5-chloropyrimidin-4-yl)indolin-6-yl)-2-(1-methyl-1H-pyrazol-3-yl)but-3-yn-2-ol]
< 1 | C[C@@](O)(C#Cc1ccc2c(c1)N(c1ncncc1Cl)CC21CCOCC1)c1nccs1 [Example 32, (2R)-4-[1-(5-chloropyrimidin-4-yl)-1,2,2′,3′,5′,6′-hexahydrospiro[indole-3,4′-pyran]-6-yl]-2-(1,3-thiazol-2-yl)but-3-yn-2-ol]
< 1 | C[C@@](O)(C#Cc1ccc2c(c1)N(c1ccncn1)CC21CCOCC1)c1nccs1 [Example 33, (2R)-4-(1-pyrimidin-4-yl-1,2,2′,3′,5′,6′-hexahydrospiro[indole-3,4′-pyran]-6-yl)-2-(1,3-thiazol-2-yl)but-3-yn-2-ol]
< 1 | CC(O)(C#Cc1ccc2c(c1)N(c1nc(N)ncc1Cl)CC2)c1ncc(C#N)s1 (stereo not drawn) [Example 34, 2-(4-(1-(2-amino-5-chloropyrimidin-4-yl)indolin-6-yl)-2-hydroxybut-3-yn-2-yl)thiazole-5-carbonitrile]
< 1 | CN1CCOC2(C1)CN(c1nc(N)ncc1Cl)c1cc(C#C[C@@](C)(O)c3nccs3)ccc12 (stereo partly drawn) [Example 36, (2R)-4-[1-(2-amino-5-chloropyrimidin-4-yl)-4′-methyl-1,2-dihydrospiro[indole-3,2′-[1,4]oxazinan]-6-yl]-2-(1,3-thiazol-2-yl)but-3-yn-2-ol]
< 1 | CC(O)(C#Cc1ccc2c(c1)N(c1ncncn1)CC21CCOCC1)c1nccs1 (stereo not drawn) [Example 37, 2-(1,3-thiazol-2-yl)-4-(1-(1,3,5-triazin-2-yl)-1,2,2′,3′,5′,6′-hexahydrospiro[indole-3,4′-pyran]-6-yl)-3-butyn-2-ol]
< 1 | CC(O)(C#Cc1ccc2c(c1)N(c1ncncn1)CC2(C)C)c1nccs1 (stereo not drawn) [Example 38, 4-(3,3-dimethyl-1-(1,3,5-triazin-2-yl)-2,3-dihydro-1H-indol-6-yl)-2-(1,3-thiazol-2-yl)-3-butyn-2-ol]
< 1 | CN1CC[C@](O)(C#Cc2ccc3c(c2)N(c2nc(N)ncc2Cl)CC3(C)C)C1=O [Example 44, (3S)-3-((1-(2-amino-5-chloro-4-pyrimidinyl)-3,3-dimethyl-2,3-dihydro-1H-indol-6-yl)ethynyl)-3-hydroxy-1-methyl-2-pyrrolidinone]
< 1 | Cn1cnc(C(C)(O)C#Cc2ccc3c(c2)N(c2nc(N)ncc2Cl)CC3(C)C)c1 (stereo not drawn) [Example 45, 4-(1-(2-amino-5-chloro-4-pyrimidinyl)-3,3-dimethyl-2,3-dihydro-1H-indol-6-yl)-2-(1-methyl-1H-imidazol-4-yl)-3-butyn-2-ol]
< 1 | Cn1cnc(C(O)C#Cc2ccc3c(c2)N(c2nc(N)ncc2Cl)CC3(C)C)c1 (stereo not drawn) [Example 46, 3-(1-(2-amino-5-chloro-4-pyrimidinyl)-3,3-dimethyl-2,3-dihydro-1H-indol-6-yl)-1-(1-methyl-1H-imidazol-4-yl)-2-propyn-1-ol]
< 1 | COC(=O)C(C)(O)C#Cc1ccc2c(c1)N(c1nc(N)ncc1Cl)CC2(C)C (stereo not drawn) [Example 48, methyl 4-(1-(2-amino-5-chloro-4-pyrimidinyl)-3,3-dimethyl-2,3-dihydro-1H-indol-6-yl)-2-hydroxy-2-methyl-3-butynoate]
< 1 | CNC(=O)C(C)(O)C#Cc1ccc2c(c1)N(c1nc(N)ncc1Cl)CC2(C)C (stereo not drawn) [Example 49, 4-(1-(2-amino-5-chloro-4-pyrimidinyl)-3,3-dimethyl-2,3-dihydro-1H-indol-6-yl)-2-hydroxy-N,2-dimethyl-3-butynamide]
< 1 | CC(O)(C#Cc1ccc2c(c1)N(c1nc(N)ncc1Cl)CC2(C)C)C(=O)N1CCCC1 (stereo not drawn) [Example 50, 4-(1-(2-amino-5-chloro-4-pyrimidinyl)-3,3-dimethyl-2,3-dihydro-1H-indol-6-yl)-2-methyl-1-oxo-1-(1-pyrrolidinyl)-3-butyn-2-ol]
< 1 | CC1(CO)CN(c2nc(N)ncc2Cl)c2cc(C#CC3(O)CCCC3)ccc21 (stereo not drawn) [Example 54, 1-((1-(2-amino-5-chloro-4-pyrimidinyl)-3-(hydroxymethyl)-3-methyl-2,3-dihydro-1H-indol-6-yl)ethynyl)cyclopentanol]
< 1 | CC(O)(C#Cc1ccc2c(c1)N(c1ccncc1)CC2(CO)CO)c1nccs1 (stereo not drawn) [Example 59, 4-(3,3-bis(hydroxymethyl)-1-(4-pyridinyl)-2,3-dihydro-1H-indol-6-yl)-2-(1,3-thiazol-2-yl)-3-butyn-2-ol]
